Measured values taken from PubChem BioAssay AID256 (DTP/NCI, 2004).
Where “and” joins values, the source holds several entries; their conditions need not be identical. Equal entries are not always repeated. Inconclusive results and toxic doses are left out.

System: CD2F1 mice, L1210 leukemia ip, survival T/C
Assay: NCI In Vivo Anticancer Drug Screen. Data for tumor model L1210 Leukemia (intraperitoneal) in CD2F1 (CDF1) mice
Conditions: higher = longer survival
How it was run: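 Implant tumor; dose compound or vehicle; measure endpoint in both groups; report treated divided by control.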

S=c1nc[nH]c2nc[nH]c12
T/C (endpoint: mean survival time, dose: 8.0 mg/kg/injection, schedule: Q03HX024 (ip), vehicle: alkali diluted with water): 155 % of control | T/C (endpoint: mean survival time, dose: 9.38 mg/kg/injection, schedule: Q01DX009 (ip), vehicle: alkali diluted with saline): 119 % of control | T/C (endpoint: mean survival time, dose: 10.0 mg/kg/injection, schedule: Q01DX005 (ip), vehicle: alkali diluted with saline): 113 % of control | T/C (endpoint: mean survival time, dose: 10.0 mg/kg/injection, schedule: Q01DX005 (ip), vehicle: alkali diluted with water): 98 % of control | T/C (endpoint: mean survival time, dose: 16.0 mg/kg/injection, schedule: Q03HX024 (ip), vehicle: alkali diluted with water): 160 % of control | T/C (endpoint: mean survival time, dose: 18.8 mg/kg/injection, schedule: Q01DX009 (ip), vehicle: alkali diluted with saline): 113 % of control | T/C (endpoint: mean survival time, dose: 19.4 mg/kg/injection, schedule: Q04DX003 (ip), vehicle: alkali diluted with saline): 101 % of control | T/C (endpoint: mean survival time, dose: 20.0 mg/kg/injection, schedule: Q01DX007 (ip), vehicle: saline): 116 % of control | T/C (endpoint: mean survival time, dose: 20.0 mg/kg/injection, schedule: Q01DX009 (ip), vehicle: alkali diluted with water): 114 % of control | T/C (endpoint: mean survival time, dose: 20.0 mg/kg/injection, schedule: Q01DX009 (ip), vehicle: other): 121 % of control | T/C (endpoint: mean survival time, dose: 20.0 mg/kg/injection, schedule: Q01DX009 (ip), vehicle: saline): 120 % of control | T/C (endpoint: mean survival time, dose: 20.0 mg/kg/injection, schedule: Q04DX002 (ip), vehicle: saline): 120 % of control | T/C (endpoint: mean survival time, dose: 28.13 mg/kg/injection, schedule: Q04DX003 (ip), vehicle: alkali diluted with saline): 95 % of control | T/C (endpoint: mean survival time, dose: 30.0 mg/kg/injection, schedule: Q## X006 (ip), vehicle: saline): 101 % of control | T/C (endpoint: mean survival time, dose: 37.5 mg/kg/injection, schedule: Q01DX009 (ip), vehicle: alkali diluted with saline): 122 % of control | T/C (endpoint: mean survival time, dose: 40.0 mg/kg/injection, schedule: Q01DX005 (ip), vehicle: saline): 150 % of control | T/C (endpoint: mean survival time, dose: 40.0 mg/kg/injection, schedule: Q01DX005 (ip), vehicle: sodium bicarbonate): 116 % of control | T/C (endpoint: mean survival time, dose: 40.0 mg/kg/injection, schedule: Q01DX009 (ip), vehicle: other): 166 % of control and 167 % of control | T/C (endpoint: mean survival time, dose: 40.0 mg/kg/injection, schedule: Q03DX003 (ip), vehicle: saline): 113 % of control | T/C (endpoint: mean survival time, dose: 40.0 mg/kg/injection, schedule: Q04DX003 (ip), vehicle: saline): 116 % of control | T/C (endpoint: mean survival time, dose: 60.0 mg/kg/injection, schedule: Q## X009 (ip), vehicle: saline): 122 % of control | T/C (endpoint: mean survival time, dose: 66.0 mg/kg/injection, schedule: Q04DX003 (ip), vehicle: saline): 163 % of control | T/C (endpoint: mean survival time, dose: 75.0 mg/kg/injection, schedule: Q01DX009 (ip), vehicle: alkali diluted with saline): 156 % of control and 170 % of control | T/C (endpoint: mean survival time, dose: 80.0 mg/kg/injection, schedule: Q01DX001 (ip), vehicle: alkali diluted with water): 120 % of control | T/C (endpoint: mean survival time, dose: 80.0 mg/kg/injection, schedule: Q01DX005 (ip), vehicle: saline with Tween-80): 168 % of control | T/C (endpoint: mean survival time, dose: 80.0 mg/kg/injection, schedule: Q01DX005 (ip), vehicle: saline): 170 % of control and 172 % of control | T/C (endpoint: mean survival time, dose: 80.0 mg/kg/injection, schedule: Q01DX005 (ip), vehicle: sodium bicarbonate): 157 % of control | T/C (endpoint: mean survival time, dose: 80.0 mg/kg/injection, schedule: Q01DX007 (ip), vehicle: saline): 158 % of control | T/C (endpoint: mean survival time, dose: 80.0 mg/kg/injection, schedule: Q01DX009 (ip), vehicle: alkali diluted with saline): 150 % of control | T/C (endpoint: mean survival time, dose: 80.0 mg/kg/injection, schedule: Q01DX009 (ip), vehicle: alkali diluted with water): 150 % of control and 158 % of control | T/C (endpoint: mean survival time, dose: 80.0 mg/kg/injection, schedule: Q01DX009 (ip), vehicle: other): 156 % of control | T/C (endpoint: mean survival time, dose: 80.0 mg/kg/injection, schedule: Q01DX009 (ip), vehicle: saline): 156 % of control | T/C (endpoint: mean survival time, dose: 80.0 mg/kg/injection, schedule: Q04DX002 (ip), vehicle: saline): 150 % of control | T/C (endpoint: mean survival time, dose: 90.0 mg/kg/injection, schedule: Q## X002 (ip), vehicle: saline): 153 % of control | T/C (endpoint: mean survival time, dose: 125.0 mg/kg/injection, schedule: Q01DX001 (ip), vehicle: alkali diluted with saline): 120 % of control | T/C (endpoint: mean survival time, dose: 150.0 mg/kg/injection, schedule: Q01DX009 (ip), vehicle: alkali diluted with saline): 113 % of control and 95 % of control | T/C (endpoint: mean survival time, dose: 150.0 mg/kg/injection, schedule: Q04DX003 (ip), vehicle: alkali diluted with saline): 155 % of control | T/C (endpoint: mean survival time, dose: 160.0 mg/kg/injection, schedule: Q01DX001 (ip), vehicle: alkali diluted with water): 152 % of control | T/C (endpoint: mean survival time, dose: 160.0 mg/kg/injection, schedule: Q01DX005 (ip), vehicle: saline with Tween-80): 175 % of control | T/C (endpoint: mean survival time, dose: 160.0 mg/kg/injection, schedule: Q01DX005 (ip), vehicle: saline): 171 % of control | T/C (endpoint: mean survival time, dose: 160.0 mg/kg/injection, schedule: Q01DX009 (ip), vehicle: alkali diluted with saline): 101 % of control | T/C (endpoint: mean survival time, dose: 160.0 mg/kg/injection, schedule: Q01DX009 (ip), vehicle: alkali diluted with water): 114 % of control and 88 % of control | T/C (endpoint: mean survival time, dose: 160.0 mg/kg/injection, schedule: Q01DX009 (ip), vehicle: other): 87 % of control | T/C (endpoint: mean survival time, dose: 165.0 mg/kg/injection, schedule: Q01DX001 (ip), vehicle: alkali diluted with saline): 122 % of control | T/C (endpoint: mean survival time, dose: 180.0 mg/kg/injection, schedule: Q## X002 (ip), vehicle: saline): 164 % of control | T/C (endpoint: mean survival time, dose: 180.0 mg/kg/injection, schedule: Q## X009 (ip), vehicle: saline): 154 % of control | T/C (endpoint: mean survival time, dose: 270.0 mg/kg/injection, schedule: Q## X006 (ip), vehicle: saline): 150 % of control | T/C (endpoint: mean survival time, dose: 270.0 mg/kg/injection, schedule: Q## X009 (ip), vehicle: saline): 153 % of control | T/C (endpoint: median survival time, dose: 15.6 mg/kg/injection, schedule: Q01DX009 (ip), vehicle: alkali diluted with saline): 116 % of control | T/C (endpoint: median survival time, dose: 18.0 mg/kg/injection, schedule: Q01DX009 (ip), vehicle: alkali diluted with saline): 118 % of control | T/C (endpoint: median survival time, dose: 20.0 mg/kg/injection, schedule: Q01DX005 (ip), vehicle: water): 187 % of control | T/C (endpoint: median survival time, dose: 25.0 mg/kg/injection, schedule: Q01DX009 (ip), vehicle: Klucel (hydroxypropylcellulose) (HPC)): 182 % of control | T/C (endpoint: median survival time, dose: 25.0 mg/kg/injection, schedule: Q01DX009 (ip), vehicle: alkali diluted with water): 122 % of control | T/C (endpoint: median survival time, dose: 25.9 mg/kg/injection, schedule: Q01DX009 (ip), vehicle: alkali diluted with saline): 124 % of control | T/C (endpoint: median survival time, dose: 26.0 mg/kg/injection, schedule: Q01DX009 (ip), vehicle: Klucel (hydroxypropylcellulose) (HPC)): 170 % of control | T/C (endpoint: median survival time, dose: 30.0 mg/kg/injection, schedule: Q01DX009 (ip), vehicle: alkali diluted with saline): 121 % of control | T/C (endpoint: median survival time, dose: 37.5 mg/kg/injection, schedule: Q04DX003 (ip), vehicle: Klucel (hydroxypropylcellulose) (HPC)): 154 % of control | T/C (endpoint: median survival time, dose: 40.0 mg/kg/injection, schedule: Q01DX005 (ip), vehicle: water): 310 % of control | T/C (endpoint: median survival time, dose: 40.0 mg/kg/injection, schedule: Q01DX009 (ip), vehicle: Klucel (hydroxypropylcellulose) (HPC)): 159 % of control | T/C (endpoint: median survival time, dose: 40.0 mg/kg/injection, schedule: Q01DX009 (ip), vehicle: alkali diluted with saline): 123 % of control | T/C (endpoint: median survival time, dose: 50.0 mg/kg/injection, schedule: Q01DX009 (ip), vehicle: Klucel (hydroxypropylcellulose) (HPC)): 259 % of control | T/C (endpoint: median survival time, dose: 50.0 mg/kg/injection, schedule: Q01DX009 (ip), vehicle: alkali diluted with water): 164 % of control | T/C (endpoint: median survival time, dose: 50.0 mg/kg/injection, schedule: Q04DX003 (ip), vehicle: alkali diluted with saline): 101 % of control | T/C (endpoint: median survival time, dose: 60.0 mg/kg/injection, schedule: Q01DX009 (ip), vehicle: alkali diluted with saline): 173 % of control | T/C (endpoint: median survival time, dose: 60.0 mg/kg/injection, schedule: Q01DX009 (ip), vehicle: water): 159 % of control | T/C (endpoint: median survival time, dose: 70.0 mg/kg/injection, schedule: Q01DX009 (ip), vehicle: alkali diluted with saline): 151 % of control and 158 % of control | T/C (endpoint: median survival time, dose: 72.0 mg/kg/injection, schedule: Q01DX009 (ip), vehicle: alkali diluted with saline): 150 % of control | T/C (endpoint: median survival time, dose: 75.0 mg/kg/injection, schedule: Q04DX003 (ip), vehicle: Klucel (hydroxypropylcellulose) (HPC)): 176 % of control | T/C (endpoint: median survival time, dose: 78.0 mg/kg/injection, schedule: Q04DX003 (ip), vehicle: other): 120 % of control | T/C (endpoint: median survival time, dose: 80.0 mg/kg/injection, schedule: Q01DX005 (ip), vehicle: Klucel (hydroxypropylcellulose) (HPC)): 158 % of control | T/C (endpoint: median survival time, dose: 80.0 mg/kg/injection, schedule: Q01DX005 (ip), vehicle: water): 164 % of control | T/C (endpoint: median survival time, dose: 80.0 mg/kg/injection, schedule: Q01DX009 (ip), vehicle: water): 158 % of control | T/C (endpoint: median survival time, dose: 83.3 mg/kg/injection, schedule: Q01DX009 (ip), vehicle: alkali diluted with saline): 160 % of control | T/C (endpoint: median survival time, dose: 100.0 mg/kg/injection, schedule: Q01DX001 (ip), vehicle: alkali diluted with saline): 117 % of control and 122 % of control | T/C (endpoint: median survival time, dose: 100.0 mg/kg/injection, schedule: Q01DX001 (ip), vehicle: alkali diluted with water): 157 % of control | T/C (endpoint: median survival time, dose: 100.0 mg/kg/injection, schedule: Q01DX005 (ip), vehicle: alkali diluted with water): 172 % of control | T/C (endpoint: median survival time, dose: 100.0 mg/kg/injection, schedule: Q01DX009 (ip), vehicle: Klucel (hydroxypropylcellulose) (HPC)): 211 % of control | T/C (endpoint: median survival time, dose: 100.0 mg/kg/injection, schedule: Q04DX003 (ip), vehicle: alkali diluted with saline): 116 % of control | T/C (endpoint: median survival time, dose: 120.0 mg/kg/injection, schedule: Q01DX009 (ip), vehicle: alkali diluted with saline): 154 % of control | T/C (endpoint: median survival time, dose: 150.0 mg/kg/injection, schedule: Q04DX003 (ip), vehicle: Klucel (hydroxypropylcellulose) (HPC)): 178 % of control | T/C (endpoint: median survival time, dose: 160.0 mg/kg/injection, schedule: Q01DX005 (ip), vehicle: Klucel (hydroxypropylcellulose) (HPC)): 164 % of control | T/C (endpoint: median survival time, dose: 200.0 mg/kg/injection, schedule: Q01DX005 (ip), vehicle: alkali diluted with water): 89 % of control | T/C (endpoint: median survival time, dose: 200.0 mg/kg/injection, schedule: Q01DX009 (ip), vehicle: Klucel (hydroxypropylcellulose) (HPC)): 154 % of control | T/C (endpoint: median survival time, dose: 200.0 mg/kg/injection, schedule: Q01DX009 (ip), vehicle: alkali diluted with water): 88 % of control | T/C (endpoint: median survival time, dose: 200.0 mg/kg/injection, schedule: Q04DX003 (ip), vehicle: alkali diluted with saline): 155 % of control | T/C (endpoint: median survival time, dose: 200.0 mg/kg/injection, schedule: Q04DX003 (ip), vehicle: other): 475 % of control | T/C (endpoint: median survival time, dose: 400.0 mg/kg/injection, schedule: Q01DX009 (ip), vehicle: Klucel (hydroxypropylcellulose) (HPC)): 152 % of control | T/C (endpoint: median survival time, dose: 600.0 mg/kg/injection, schedule: Q04DX003 (ip), vehicle: Klucel (hydroxypropylcellulose) (HPC)): 194 % of control
